Reference: US10435361B2, “Kinase inhibitors” (Topivert Pharma Limited, priority 2013, dated 2019)

Legend:
Format in all cases: cell-based
[1] = test system: PBMCs; experiment: LPS-induced TNFα/IL-8 release in PBMC cells; details: Homo sapiens, assay (b), read-out: IC50 Values for Inhibition of Cytokine Release PBMCs IL-8
How it was run: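 Healthy-donor PBMCs isolated by density gradient were pretreated with compound for 2 h, then stimulated with 1 ng/mL LPS (E. coli 0111:B4) for 24 h at 37° C., 5% CO2. IL-8 and TNFα in supernatants measured by sandwich ELISA.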

[2] = test system: PBMCs; experiment: IL-2 and IFN gamma release in CD3/CD28 stimulated PBMC cells; details: Homo sapiens, assay (c)
How it was run: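 Healthy-donor PBMCs, density-gradient isolated, stimulated on plates pre-coated with anti-CD3 (0.3 μg/mL) and anti-CD28 (3 μg/mL) antibodies, with compound, for 3 days under standard culture conditions. IC50 derived from the dose-response curve.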

[3] = test system: HT29 cells; experiment: IL-1β-induced IL-8 release in HT29 cells; details: Homo sapiens, HT-29, assay (d), read-out: IC50 Values for Inhibition of Cytokine Release HT29 cells IL-8
Procedure: HT29 cells, a human colon adenocarcinoma cell line, are plated in a 96 well plate (24 hr) and pre-treated with compounds at the desired concentration for 2 hours before addition of 5 ng/mL of IL-1β (Abcam) for 24 hours. Supernatants are harvested for IL-8 quantification by Sandwich ELISA (Duo-set, R&D System). The IC50 is determined from the dose response curve.

[4] = test system: PBMCs; experiment: Cell mitosis assay in PBMCs; details: Homo sapiens, PBMC, 5 μg/mL
Procedure: Peripheral blood mononucleocytes (PBMCs) from healthy subjects are separated from whole blood (Quintiles, London, UK) using a density gradient (Histopaque®-1077, Sigma-Aldrich, Poole, UK). The PBMCs (3 million cells per sample) are subsequently treated with 2% PHA (phytohaemagglutinin, Sigma-Aldrich, Poole, UK) for 48 hr, followed by a 20 hr exposure to varying concentrations of test compounds. At 2 hr before collection, PBMCs are treated with demecolcine (0.1 μg/mL; Invitrogen, Paisley, UK) to arrest cells in metaphase. To observe mitotic cells, PBMCs are permeabilised and fixed by adding Intraprep (50 μL; Beckman Coulter, France), and stained with anti-phospho-histone 3 (0.26 ng/L; #9701; Cell Signalling, Danvers, Mass.) and propidium iodide (1 mg/mL; Sigma-Aldrich, Poole, UK) as previously described (Muehlbauer P. A. and Schuler M. J., Mutation Research, 2003, 537:117-130). Fluorescence is observed using an ATTUNE flow cytometer (Invitrogen, Paisley, UK), gating for lymphocytes.

[5] = read-out: IC50 Values for Inhibition of Cytokine Release PBMCs IFNγ
[6] = read-out: IC50 Values for Inhibition of Cytokine Release PBMCs IL-2

| Compound | IC50 [3] [nM] | IC50 [1] [nM] | IC50 [2, 5] [nM] | IC50 [2, 6] [nM] | inhibition at 5 µg/mL [4] [%] |
| --- | --- | --- | --- | --- | --- |
| C#Cc1cc(Nc2cc(Oc3ccc(NC(=O)Nc4cc(C(C)(C)C)cc(C(=O)NC)c4OC)c4ccccc34)ccn2)cc(C(=O)NCCN2CCOCC2)c1 [Example 39, 5-(tert-Butyl)-3-(3-(4-((2-((3-ethynyl-5-((2-morpholinoethyl)carbamoyl)phenyl)amino)-pyridin-4-yl)oxy)naphthalen-1-yl)ureido)-2-methoxy-N-methylbenzamide] | 5.3 | 2.5 | 9.6 | 132 | 34.7 |
| COCCOCCOCCOCCOCCOCCOCCOc1cc(Nc2cc(Oc3ccc(NC(=O)Nc4cc(C(C)(C)C)cc(NS(C)(=O)=O)c4OC)c4ccccc34)ccn2)cc(OC)c1 [Example 45, N-(3-(3-(4-((2-((3-(2,5,8,11,14,17,20-Heptaoxadocosan-22-yloxy)-5-methoxyphenyl)-amino)pyridin-4-yl)oxy)naphthalen-1-yl)ureido)-5-(tert-butyl)-2-methoxyphenyl)methane-sulfonamide] | 2.1 | 1.4 | 7.8 | 182 | 45 |
| C#Cc1cc(Nc2cc(Oc3ccc(NC(=O)Nc4cc(C(C)(C)C)cc(C(N)=O)c4OC)c4ccccc34)ccn2)cc(C(=O)NCCN2CCOCC2)c1 [Example 48, 3-((4-((4-(3-(5-(tert-Butyl)-3-carbamoyl-2-methoxyphenyl)ureido)naphthalen-1-yl)oxy)pyridin-2-yl)amino)-5-ethynyl-N-(2-morpholinoethyl)benzamide] | 10.2 | 3.4 | 17.2 | 144 | 44.2 |
| C#Cc1cc(Nc2cc(Oc3ccc(NC(=O)Nc4cc(C(C)(C)C)cc(NS(C)(=O)=O)c4OC)c4ccccc34)ccn2)cc(C(=O)NCCN2CCOCC2)c1 [Example 49, 3-((4-((4-(3-(5-(tert-Butyl)-2-methoxy-3-(methylsulfonamido)phenyl)ureido)naphthalen-1-yl)oxy)pyridin-2-yl)amino)-5-ethynyl-N-(2-morpholinoethyl)benzamide] | 8.6 | 2.5 | 11 | 227 | 40.1 |
| C#Cc1cc(Nc2cc(Oc3ccc(NC(=O)Nc4cc(C(C)(C)C)cc(NS(C)(=O)=O)c4OC)c4ccccc34)ccn2)cc(C(=O)NCCOCCOC)c1 [Example 52, 3-((4-((4-(3-(5-(tert-Butyl)-2-methoxy-3-(methylsulfonamido)phenyl)ureido)naphthalen-1-yl)oxy)pyridin-2-yl)amino)-5-ethynyl-N-(2-(2-methoxyethoxy)ethyl)benzamide] | 17.3 | 2.4 | 39 | 205 | 31 |
| C#Cc1cc(Nc2cc(Oc3ccc(NC(=O)Nc4cc(C(C)(C)C)cc(C(N)=O)c4OC)c4ccccc34)ccn2)cc(C(=O)NCCOCCOCCOC)c1 [Example 53, 3-((4-((4-(3-(5-(tert-Butyl)-3-carbamoyl-2-methoxyphenyl)ureido)naphthalen-1-yl)oxy)pyridin-2-yl)amino)-5-ethynyl-N-(2-(2-(2-methoxyethoxy)ethoxy)ethyl)benzamide] | 6.4 | 1.6 | 14.9 | 181 | 30.3 |
| C#Cc1cc(Nc2nccc(Oc3ccc(NC(=O)Nc4cc(C(C)(C)C)cc(NS(C)(=O)=O)c4OC)c4ccccc34)n2)cc(C(=O)N[C@H](C)CN2CCOCC2)c1 [Example 56, (R)-3-((4-((4-(3-(5-(tert-Butyl)-2-methoxy-3-(methylsulfonamido)phenyl)ureido)-naphthalen-1-yl)oxy)pyrimidin-2-yl)amino)-5-ethynyl-N-(1-morpholinopropan-2-yl)-benzamide] | 8.6 | 1.8 | 12.2 | 35.2 | 46.4 |

Continued, in another order:

| IC50 [3] [nM] | Compound | IC50 [1] [nM] | IC50 [2, 5] [nM] | IC50 [2, 6] [nM] | inhibition at 5 µg/mL [4] [%] |
| --- | --- | --- | --- | --- | --- |
| 4.7 | CNC(=O)c1cc(NC(=O)Nc2ccc(Oc3ccnc(Nc4cc(OC)cc(OCCOCCOCCOC)c4)n3)c3ccccc23)cc(C(C)(C)C)c1 [Example 23, 3-(tert-Butyl)-5-(3-(4-((2-((3-methoxy-5-(2-(2-(2-methoxyethoxy)ethoxy)ethoxy)phenyl)-amino)pyrimidin-4-yl)oxy)naphthalen-1-yl)ureido)-N-methylbenzamide] | 2.6 | 9.1 | 17.1 | 25.4 |
| 0.8 | COCCOCCOc1cc(Nc2nccc(Oc3ccc(NC(=O)Nc4cc(C(C)(C)C)cc(NS(C)(=O)=O)c4OC)c4ccccc34)n2)cc(OC)c1 [Example 36, N-(5-(tert-Butyl)-2-methoxy-3-(3-(4-((2-((3-methoxy-5-(2-(2-methoxyethoxy)ethoxy)-phenyl)amino)pyrimidin-4-yl)oxy)naphthalen-1-yl)ureido)phenyl)methanesulfonamide] | 1.8 | 5.7 | 65.3 | 45 |
| 1.7 | COCCOCCOCCOc1cc(Nc2nccc(Oc3ccc(NC(=O)Nc4cc(C(C)(C)C)cc(C(=O)NC5COC5)c4OC)c4ccccc34)n2)cc(OC)c1 [Example 51, 5-(tert-Butyl)-2-methoxy-3-(3-(4-((2-((3-methoxy-5-(2-(2-(2-methoxyethoxy)ethoxy)-ethoxy)phenyl)amino)pyrimidin-4-yl)oxy)naphthalen-1-yl)ureido)-N-(oxetan-3-yl)-benzamide] | 1.6 | 1.8 | 46.3 | 44.3 |
| 4.5 | COCCOCCOCCOc1cc(Nc2nccc(Oc3ccc(NC(=O)Nc4cc(C(C)(C)C)cc(S(N)(=O)=O)c4OC)c4ccccc34)n2)cc(OC)c1 [Example 55, 5-(tert-Butyl)-2-methoxy-3-(3-(4-((2-((3-methoxy-5-(2-(2-(2-methoxyethoxy)ethoxy)-ethoxy)phenyl)amino)pyrimidin-4-yl)oxy)naphthalen-1-yl)ureido)benzenesulfonamide] | 2.2 | 12 | 35.2 | 54.3 |
| 4.1 | COCCOCCOCCOc1cc(Nc2nccc(Oc3ccc(NC(=O)Nc4cc(C(C)(C)C)cc(-c5cnn[nH]5)c4OC)c4ccccc34)n2)cc(OC)c1 [Example 70, 1-(5-(tert-Butyl)-2-methoxy-3-(1H-1,2,3-triazol-5-yl)phenyl)-3-(4-((2-((3-methoxy-5-(2-(2-(2-methoxyethoxy)ethoxy)ethoxy)phenyl)amino)pyrimidin-4-yl)oxy)naphthalen-1-yl)urea] | 4.9 | 7.4 | – | – |
| 1150 | COCCOCCOCCOc1cc(Nc2nccc(Oc3ccc(NC(=O)Nc4cc(C(C)(C)C)cc(NS(=O)(=O)C(F)(F)F)c4OC)c4ccccc34)n2)cc(OC)c1 [Example 71, N-(5-(tert-Butyl)-2-methoxy-3-(3-(4-((2-((3-methoxy-5-(2-(2-(2-methoxyethoxy)ethoxy)-ethoxy)phenyl)amino)pyrimidin-4-yl)oxy)naphthalen-1-yl)ureido)phenyl)-1,1,1-trifluoro-methanesulfonamide] | 114 | – | – | – |
| 19.2 | COCCOCCOCCOc1cc(Nc2nccc(Oc3ccc(NC(=O)Nc4cc(C(C)(C)C)cc(NS(=O)(=O)C5CCCCC5)c4OC)c4ccccc34)n2)cc(OC)c1 [Example 72, N-(5-(tert-Butyl)-2-methoxy-3-(3-(4-((2-((3-methoxy-5-(2-(2-(2-methoxyethoxy)ethoxy)-ethoxy)phenyl)amino)pyrimidin-4-yl)oxy)naphthalen-1-yl)ureido)phenyl)cyclohexane-sulfonamide] | 11.8 | – | – | – |
| 31.6 | COCCOCCOCCOc1cc(Nc2nccc(Oc3ccc(NC(=O)Nc4cc(C(C)(C)C)cc(NS(=O)(=O)N5CCCCC5)c4OC)c4ccccc34)n2)cc(OC)c1 [Example 73, N-(5-(tert-Butyl)-2-methoxy-3-(3-(4-((2-((3-methoxy-5-(2-(2-(2-methoxyethoxy)ethoxy)-ethoxy)phenyl)amino)pyrimidin-4-yl)oxy)naphthalen-1-yl)ureido)phenyl)piperidine-1-sulfonamide] | 19 | – | – | – |
| 11.7 | COCCOCCOCCOc1cc(Nc2nccc(Oc3ccc(NC(=O)Nc4cc(C(C)(C)C)cc(NS(=O)(=O)N(C)C)c4OC)c4ccccc34)n2)cc(OC)c1 [Example 74, N-(5-(tert-Butyl)-2-methoxy-3-(3-(4-((2-((3-methoxy-5-(2-(2-(2-methoxyethoxy)ethoxy)-ethoxy)phenyl)amino)pyrimidin-4-yl)oxy)naphthalen-1-yl)ureido)phenyl)dimethylamino-sulfonamide] | 6.6 | – | – | – |
